Structures are written as SMILES.

For one series, the system named is SARS-CoV-2. Briefly: microbe, parasite or virus in culture. Type of series: cell-based. The settings on record: Severe acute respiratory syndrome coronavirus 2, Vero C1008, read-out: Inhibition rate (%).
For a further series, the system named is 60 human cell lines. Nature of the series: Cytotoxicity of HHT in 60 human cell lines. The following applies: 1 μM (or lower) for 48 hours; cell lines other than the few that died obviously, of 60 human cell lines.

By inhibition is commonly meant the drop in the measured response relative to a control, in per cent. For `COC(=O)C[C@](O)(CCCC(C)(C)O)C(=O)O[C@@H]1C(OC)=C[C@]23CCCN2CCc2cc4c(cc2[C@H]13)OCO4` [HHT, Homoharringtonine], the inhibition at 0.186 µM with SARS-CoV-2 (drug concentration 0.186 μM) amounted to 31.7 ± 7.64%. Moreover, the inhibition at 0.375 µM with SARS-CoV-2 (drug concentration 0.375 μM) turned out to be 60 ± 8.66%. The inhibition at 0.75 µM in the series on SARS-CoV-2 (drug concentration 0.75 μM) came out at 86.7 ± 2.89%. Moreover, in the series on SARS-CoV-2 (drug concentration 1.50 μM), the inhibition at 1.5 µM stood at 93.3 ± 2.89%. For the same compound, the cell viability entry with 60 human cell lines was “about 100%”.

The record behind these values is patent US11850250B2, “Use of homoharringtonine in preparation of betacoronavirus replication inhibitor in human” (priority 2020, dated 2023).
